First the molecules themselves.
T1: KLHDC2 (Homo sapiens, UniProt Q9Y2U9)
T1 construct: human KLHDC2 (UniProt: Q9Y2U9, amino acid 1–362); made in house; host or cells: HighFive insect cells (baculovirus, pFastBac)
T1 sequence (Q9Y2U9 1-362): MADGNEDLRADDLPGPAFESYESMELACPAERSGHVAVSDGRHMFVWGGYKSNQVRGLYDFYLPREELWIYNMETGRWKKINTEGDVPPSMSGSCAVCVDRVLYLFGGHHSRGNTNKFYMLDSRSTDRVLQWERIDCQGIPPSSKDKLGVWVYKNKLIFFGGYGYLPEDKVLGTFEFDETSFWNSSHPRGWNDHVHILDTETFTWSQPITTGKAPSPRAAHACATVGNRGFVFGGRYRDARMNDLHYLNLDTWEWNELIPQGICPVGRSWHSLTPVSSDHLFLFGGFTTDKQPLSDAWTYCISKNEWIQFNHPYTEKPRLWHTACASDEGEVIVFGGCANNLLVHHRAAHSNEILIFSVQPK

T2: GST-tagged kelch repeat domain of human KLHDC2 (amino acid 1-362) (human, UniProt Q9Y2U9 1-362)
T2 construct: kelch repeat domain of human KLHDC2, UniProt Q9Y2U9, amino acids 1-362; A TEV cleavage site lies between GST and KLHDC2; GST was not cleaved for the AlphaLISA and BLI assays; The crystallised construct (22-362, His-TSF cleaved, from E. coli) was used only with the small molecule C29; also called GST-KLHDC2; GST-tagged KLHDC2; source: HighFive insect cells (baculovirus), purified (glutathione …)
T2 sequence (looked up): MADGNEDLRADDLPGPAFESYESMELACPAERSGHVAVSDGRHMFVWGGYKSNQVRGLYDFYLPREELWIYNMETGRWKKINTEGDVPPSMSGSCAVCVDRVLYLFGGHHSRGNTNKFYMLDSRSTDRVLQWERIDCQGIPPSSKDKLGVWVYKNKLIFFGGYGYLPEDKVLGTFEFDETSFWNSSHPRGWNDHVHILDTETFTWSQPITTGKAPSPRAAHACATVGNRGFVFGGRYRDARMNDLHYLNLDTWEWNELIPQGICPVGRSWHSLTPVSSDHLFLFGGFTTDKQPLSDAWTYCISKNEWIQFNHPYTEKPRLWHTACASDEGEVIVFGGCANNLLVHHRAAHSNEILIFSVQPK

B1: N-terminal biotinylated 12 aa SelK degron peptide (peptide)
peptide: Biotin-HLRGSPPPMAGG
notes: diglycine-containing C-end degron of SelK (selenoprotein K), 12 aa; the C-terminal mark is cut off in print; also called SelK C-end degron peptide; biotinylated 12 aa SelK peptide; source: synthetic peptide (Bio-Synthesis, Inc.)

No end group written: not given here. *: point of attachment. Biotin = O=C1N[C@H]2[C@H](CS[C@H]2CCCCC(=O)*)N1

T3 sequence (Q15858 whole entry): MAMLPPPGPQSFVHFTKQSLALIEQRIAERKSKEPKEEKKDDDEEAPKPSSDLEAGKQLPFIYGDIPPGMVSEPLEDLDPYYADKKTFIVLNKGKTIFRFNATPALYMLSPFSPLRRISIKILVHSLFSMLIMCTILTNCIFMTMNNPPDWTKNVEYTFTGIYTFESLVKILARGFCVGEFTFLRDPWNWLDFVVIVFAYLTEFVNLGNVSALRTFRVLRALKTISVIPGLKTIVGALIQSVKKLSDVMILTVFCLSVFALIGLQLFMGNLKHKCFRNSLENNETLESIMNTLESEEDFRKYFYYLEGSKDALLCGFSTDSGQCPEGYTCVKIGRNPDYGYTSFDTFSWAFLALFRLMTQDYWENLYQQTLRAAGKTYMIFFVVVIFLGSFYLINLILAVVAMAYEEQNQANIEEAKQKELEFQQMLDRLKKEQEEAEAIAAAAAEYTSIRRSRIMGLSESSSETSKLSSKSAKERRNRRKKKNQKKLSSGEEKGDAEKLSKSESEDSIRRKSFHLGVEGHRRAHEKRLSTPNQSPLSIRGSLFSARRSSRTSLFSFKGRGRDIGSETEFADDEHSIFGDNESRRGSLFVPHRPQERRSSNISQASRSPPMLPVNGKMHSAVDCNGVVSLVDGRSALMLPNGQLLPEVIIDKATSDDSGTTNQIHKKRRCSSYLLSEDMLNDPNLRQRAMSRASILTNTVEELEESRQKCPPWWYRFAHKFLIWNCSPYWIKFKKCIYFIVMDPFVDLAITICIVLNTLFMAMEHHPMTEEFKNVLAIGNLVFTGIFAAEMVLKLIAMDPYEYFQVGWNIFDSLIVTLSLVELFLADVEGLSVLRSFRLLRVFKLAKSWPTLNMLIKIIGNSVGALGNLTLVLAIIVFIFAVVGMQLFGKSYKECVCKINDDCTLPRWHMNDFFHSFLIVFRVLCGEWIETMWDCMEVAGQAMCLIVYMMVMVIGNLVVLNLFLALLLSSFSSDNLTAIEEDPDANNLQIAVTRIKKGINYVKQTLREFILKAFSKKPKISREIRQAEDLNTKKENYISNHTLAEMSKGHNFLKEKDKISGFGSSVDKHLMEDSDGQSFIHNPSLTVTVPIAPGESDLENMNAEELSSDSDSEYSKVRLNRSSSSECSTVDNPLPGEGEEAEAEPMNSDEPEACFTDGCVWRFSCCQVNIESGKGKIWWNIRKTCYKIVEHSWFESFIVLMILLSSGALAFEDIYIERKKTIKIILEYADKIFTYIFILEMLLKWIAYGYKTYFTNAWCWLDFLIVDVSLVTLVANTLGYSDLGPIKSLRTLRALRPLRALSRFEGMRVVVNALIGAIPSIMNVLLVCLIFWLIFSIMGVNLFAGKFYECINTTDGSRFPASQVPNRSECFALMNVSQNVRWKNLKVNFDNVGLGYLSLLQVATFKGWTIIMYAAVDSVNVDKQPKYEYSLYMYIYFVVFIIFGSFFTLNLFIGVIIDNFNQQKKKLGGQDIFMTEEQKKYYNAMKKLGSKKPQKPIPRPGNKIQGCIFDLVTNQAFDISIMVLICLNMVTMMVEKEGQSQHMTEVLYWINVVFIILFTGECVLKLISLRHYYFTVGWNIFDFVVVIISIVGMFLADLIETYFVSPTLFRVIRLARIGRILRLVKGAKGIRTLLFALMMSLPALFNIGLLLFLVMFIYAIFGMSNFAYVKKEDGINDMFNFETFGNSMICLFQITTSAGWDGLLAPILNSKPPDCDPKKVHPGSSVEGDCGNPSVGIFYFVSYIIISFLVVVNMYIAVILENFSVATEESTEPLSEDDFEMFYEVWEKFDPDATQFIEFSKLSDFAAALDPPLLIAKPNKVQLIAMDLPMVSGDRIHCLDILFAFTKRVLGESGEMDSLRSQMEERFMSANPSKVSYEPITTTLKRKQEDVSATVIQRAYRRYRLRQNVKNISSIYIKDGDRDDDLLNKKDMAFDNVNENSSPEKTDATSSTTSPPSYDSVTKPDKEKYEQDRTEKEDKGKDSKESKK

For one assay, the target named is T1, KLHDC2. The assay is described as follows: AlphaLISA competition assay (displacement of SelK C-end degron peptide from GST-KLHDC2). In kind it is binding. As to conditions: IC50, competition with biotinylated 12 aa SelK degron peptide; 12-point titration, n = 3 technical replicates. An excerpt:
We took the top-ranked 1000 compounds and filtered out compounds with low predicted solubility, unsatisfied hydrogen bonds in the bound conformation, and followed by similarity clustering to reduce the redundancy in ligand structures. A total of 54 molecules that passed the filtering and clustering were manually examined for favorable interactions and geometries in PyMol[34]. Finally, 37 compounds were chosen for chemical synthesis. Out of these, 29 compounds were successfully synthesized (Supplementary Fig. 13) and characterized in an AlphaLISA competition assay, in which each compound was tested for its ability to compete with a diglycine-containing SelK C-end degron peptide for binding KLHDC2. […] This single digit μM IC50 was further confirmed in a competition assay using BioLayer Interferometry (Supplementary Fig. 14).
The kelch repeat domain of human KLHDC2 (UniProt: Q9Y2U9, amino acid 1–362) was subcloned into the pFastBac vector with an N-terminally fused glutathione-S-transferase (GST), and a TEV-cleavage site. A recombinant baculovirus was produced and amplified three times in Sf9 monolayer cells to produce P4. The P4 virus was used to infect HighFive suspension insect cell cultures to produce the recombinant GST-KLHDC2 protein. The cells were harvested 2–3 days post-infection, re-suspended, and lysed in lysis buffer (20 mM Tris, pH 8.0, 200 mM NaCl, 5 mM DTT) in the presence of protease inhibitors (1 μg/ml Leupeptin, 1 μg/ml Pepstatin and 100 μM PMSF) using a microfluidizer. The GST-KLHDC2 protein was isolated from the soluble cell lysate by PierceTM Glutathione Agarose (Thermo Scientific). For AlphaLISA competition assays, the GST-tagged KLHDC2 was further purified by Q Sepharose High-Performance resin (GE Healthcare). The NaCl eluates were subjected to a Superdex-200 size exclusion chromatography column (GE Healthcare). All samples were flash-frozen in liquid nitrogen for storage prior to use. For protein crystallization, the kelch repeat domain of human KLHDC2 (amino acids 22–362) was subcloned into the pET vector with an N-terminally fused His-elongation factor Ts (TSF) and a TEV-cleavage site. The His-TSF-KLHDC2 protein was overexpressed and purified from BL21 (DE3) E. coli cells. Bacterial cells transformed with the pET-based expression plasmid were grown in LB broth to an OD600 of 0.8–1 and induced with 0.5 mM IPTG. Cells were harvested, re-suspended, and lysed in lysis buffer (20 mM Tris, pH 8.0, 200 mM NaCl, 20 mM imidazole) in the presence of protease inhibitors (1 μg mL–1 leupeptin, 1 μg mL–1 pepstatin and 100 μM phenylmethylsulfonyl fluoride) using a microfluidizer. The His-TSF-KLHDC2 protein was isolated from the soluble cell lysate by HisPurTM Ni-NTA Superflow Agarose (Thermo Fisher Scientific, Waltham, Massachusetts). After TEV cleavage of the His-TSF, KLHDC2 was further purified by Mono Q™ 5/50 GL (GE Healthcare, Chicago, Illinois). The NaCl eluates were subjected to Superdex-200 size-exclusion chromatography (GE Healthcare). Native mass spectrometry was used to confirm KLHDC2 in its apo form. The samples were concentrated by ultrafiltration to 10–22 mg mL−1. All samples were flash-frozen in liquid nitrogen for storage prior to use.
AlphaLISA assays for determining and measuring protein-protein interactions were performed using an EnSpire reader (PerkinElmer). GST-tagged KLHDC2 was attached to anti-GST AlphaLISA acceptor beads. Synthetic N-terminal biotinylated 12 aa SelK degron peptide ([Biotin]HLRGSPPPMAGG[C) (Bio-Synthesis, Inc.) was immobilized to streptavidin-coated AlphaLISA donor beads. The donor and acceptor beads were brought into proximity by the interactions between the SelK peptide and KLHDC2. Excitation of the donor beads by a laser beam of 680 nm promotes the formation of singlet oxygen. When an acceptor bead is in close proximity, the singlet oxygen reacts with thioxene derivatives in the acceptor beads and causes the emission of 615 nm photons, which are detected as the binding signal. […]
On the technique in general: Bead proximity is the source of the signal in Alpha formats.
For the molecule `CC(=CC(=O)N1CCN(C(=O)Cc2cnc3ncccn23)C2CC21)C(C)C` (stereo not shown) [Compound C1], the IC50 was found to be 488 µM.
Still for that read-out and setting: then `CN(Cc1cn(CC(=O)O)nn1)C(=O)CCCSc1ccc(Cl)cc1` [Compound C2.4], with 10 µM.
As to `C=CCN(Cc1cn(CC(=O)O)nn1)C(=O)CSc1cc(C)ccc1C` [Compound C2.6], the IC50 came out at 6.2 µM.
In the case of `Cc1cc(C)c(C(=O)NCC(=O)NCc2cn(CC(=O)O)nn2)s1` [Compound C2.8], the IC50 amounted to 1.1 µM.
Molecule `O=C(O)Cn1cc(CNC(=O)c2ccccc2SCC2CCCO2)nn1` (stereo not shown) [Compound C2.16] had an IC50 of 3.3 µM.
On the same count and under the same terms, then `C=CCN(Cc1cn(CC(=O)O)nn1)C(=O)CCSCc1ccccc1` [Compound C2.19], with 3.4 µM; and `CC(NC(=O)CSCc1nc2ccccc2s1)c1cn(CC(=O)O)nn1` (stereo not shown) [Compound C2.20], with 4.1 µM.
Take `C[C@H]1CN(C(=O)C(OC(C)(C)C)C(C)(C)C)C[C@H]1NC(=O)CCn1ccnn1` (stereo partly shown) [Compound C4]: the IC50 came to 2070 µM.
For the molecule `CC1(C)CCCC(CC(=O)NC(C)(C)CNC(=O)c2ccnnc2S)C1` (stereo not shown) [Compound C6], the IC50 was found to be 124 µM.
On the same count and under the same terms, then `Cc1cc(C(=O)NCCCn2cnnn2)c(C)n1Cc1ccccc1` [Compound C17], with 121 µM; and `COc1ccc(CN(C)C(=O)COC(=O)Cn2ccnn2)cc1OC` [Compound C18], with 377 µM.

Another assay has as its target T3, hNaV1.7 channel (Homo sapiens, UniProt Q15858).
T3 construct: expressed in transfected cells
The assay is described as follows: Whole-cell patch-clamp electrophysiology on hNaV1.7 stably expressed in HEK-293 cells. In kind it is cell-based. The note with it: NaV1.7 inactivated state, -70 mV holding potential; mean; read-out: inactivated-state IC50. An excerpt:
We first clustered the top 100,000 ranked small molecules, then applied filters on the top 1000 cluster representative molecules. A total of 160 molecules that passed the clustering and filtering were examined manually. To ensure the chemical novelty of our selection, we specifically excluded molecules that contain the known arylsulfonamide warhead or structurally resemble antihistamines or beta-receptor blockers. Finally, ten molecules with Tanimoto similarities of less than 0.33 to the known inhibitors of NaV1.7 from the ChEMBL database[43],[44] were selected for synthesis. Of these, nine were successfully synthesized (Supplementary Fig. 16), and their activities were measured using the whole-cell patch-clamp electrophysiology assay on hNaV1.7 channel stably expressed in HEK-293 cells as described in Methods.
HEK-293 cells stably expressing human NaV1.5 and NaV1.7 were obtained from Dr. Chris Lossin (UC Davis, CA). HEK293 cells stably expressing HERG (hKv11.1) were a gift from Craig January (University of Wisconsin, Madison). Cells were cultured in complete DMEM supplemented with 10% FBS, 1% penicillin/streptomycin, and G418. All manual whole-cell patch-clamp recordings were performed at room temperature (22–24 °C) using an EPC-10 amplifier (HEKA Electronik, Lambrecht/Pfalz, Germany) on cells that were grown to 60–80% confluency, lifted with TrypLE, and plated onto poly-l-lysine–coated coverslips. External bath solution contains (in mM) 160 NaCl, 4.5 KCl, 2 CaCl2, 1 MgCl2, 10 HEPES (pH 7.4 and 305 mOsm) as. Patch pipettes were heat-pulled from soda lime glass (micro-hematocrit tubes, Kimble Chase, Rochester, NY) and had resistances of 2–3 MΩ when filled with an internal solution. Patch recordings of NaV1.5 and NaV1.7 channels were done using a cesium fluoride-based internal solution containing (in mM) 10 NaF, 110 CsF, 20 CsCl, 10 HEPES, 2 EGTA, (pH 7.4, 310 mOsm). Recordings of HERG channels were conducted using a potassium fluoride-based internal solution with added ATP (160 mM KF, 2 mM MgCl2, 10 mM EGTA, 10 mM HEPES, 4 mM NaATP, pH = 7.2 and 300–320 mOsm). Data acquisition and analysis were performed with Pulse-PulseFit (HEKA Electronik GmbH, Germany), IgorPro (WaveMetrics, Portland, OR), and Origin 9.0 software (OriginLab Corporation, Northampton, MA). To investigate specifically the inactivated state block of NaV1.7 and NaV1.5, holding potentials were set at the V1/2 of maximal inactivation (− 70 mV and − 80 mV, respectively) before voltage stepping to − 150 mV for 20 msec, and then 0 mV for 50 msec to elicit inward currents. Inhibition of currents in the resting state was recorded using a holding potential of − 120 mV. Control test currents were monitored for up to 5–10 min to ensure that the amplitude and kinetics of the response were stable. Series resistance was compensated to 80–90% and linear leak currents and capacitance artifacts were corrected using a P/4 subtraction method. The pulse interval was 0.1 Hz. For all experiments, stock solutions of the drugs were prepared fresh from 10 mM stocks in DMSO and test solutions prepared in external bath solutions were applied to individual cells into the recording bath. […] The percent reduction of HERG tail current amplitude by the compounds was determined. The percent of a block of tail current amplitude by the drugs was determined and data are shown as mean +/− SD (n = 3–4 per data point).
Background: The patch-clamp technique gives a direct electrical read-out from membranes.
As for `CC(C)=CCOc1ccc(CCC(C)NCC(O)CCC2CC2)cc1` (stereo not shown) [Compound Z8739905023, CC(CCC=1C=CC(OCC=C(C)C)=CC1)NCC(O)CCC2CC2], the IC50 was 2300 nM.

In another assay the target is T2, GST-tagged kelch repeat domain of human …. The assay is described as follows: AlphaScreen or HTRF; AlphaLISA competition assay: GST-KLHDC2 (3.83 nM) on anti-GST acceptor beads, biotinylated SelK peptide (5.55 nM) on streptavidin donor beads; 25 mM HEPES pH 7.5, 100 mM NaCl, 1 mM TCEP, 0.1% Tween-20, 0.05 mg/ml BSA; small-molecule competitors 15 nM to 1.5 mM. As to conditions: both partners purified.
For B1, the binding result is “binds”.

In general, IC50 refers to the concentration that gives 50% inhibition.

The values above are taken from publication PMC11377542, “An artificial intelligence accelerated virtual screening platform for drug discovery” (Nature Communications, 2024).
